In US12685312B2, “Sulfonamide apyrase inhibitors” (Texas Crop Science, Inc., priority 2022, dated 2026):

The molecules below were run on apyrase (assay: Screen for apyrase inhibitors (Method 1, in vitro phosphate-release absorbance assay)). Details: inhibitor conc at 1 mM stock, 1 hr room temperature, absorbance 630 nm; rounded average of two assay results.
Assay type: biochemical
Method in brief: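 Phosphate-release colorimetric assay (Windsor method) in 60 mM Hepes, 3 mM MgCl2, 3 mM CaCl2, 3 mM ATP, pH 6.5, with compound or DMSO control added. Released phosphate developed with ammonium molybdate and ascorbic acid/TCA, then stopped with citrate/acetic acid.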

Structure (SMILES) | % Inhibition of Apyrase
Cc1ccccc1NS(=O)(=O)c1ccc(C(=O)Nc2ccccc2C(=O)NC2CC2)cc1 [I-893, N-cyclopropyl-2-(4-(N-(o-tolyl)sulfamoyl)benzamido)benzamide] | 20%
Cc1cccc(NS(=O)(=O)c2ccc(C(=O)Nc3cccc(C(=O)N(C)C)c3)cc2)c1C [I-894, 3-(4-(N-(2,3-dimethylphenyl)sulfamoyl)benzamido)-N,N-dimethylbenzamide] | 18%
O=C(Nc1ccc(N2CCOCC2)cc1)c1ccc(S(=O)(=O)N2CCCc3ccccc32)cc1 [I-895, 4-((3,4-dihydroquinolin-1(2H)-yl)sulfonyl)-N-(4-morpholinophenyl)benzamide] | 10%
COc1ccccc1NC(=O)c1ccc(NS(=O)(=O)c2ccc3c(c2)OCCO3)cc1 [I-898, 4-((2,3-dihydrobenzo[b][1,4]dioxine)-6-sulfonamido)-N-(2-methoxyphenyl)benzamide] | 65%
Cc1ccc(NC(=O)c2ccc(NS(=O)(=O)c3ccc(F)c(F)c3)cc2)cc1 [I-899, 4-((3,4-difluorophenyl)sulfonamido)-N-(p-tolyl)benzamide] | 65%
CCOc1ccc(NC(=O)c2ccc(NS(=O)(=O)c3cccc(C(F)(F)F)c3)cc2)cc1 [I-900, N-(4-ethoxyphenyl)-4-((3-(trifluoromethyl)phenyl)sulfonamido) benzamide] | 65%
O=C(Nc1ccc(SC(F)F)cc1)c1ccc(NS(=O)(=O)c2cccc([N+](=O)[O-])c2)cc1 [I-901, N-(4-((difluoromethyl)thio)phenyl)-4-((3-nitrophenyl)sulfonamido)benzamide] | 64%
O=C(Nc1ccc(F)cc1)c1ccc(NS(=O)(=O)c2ccc(Cl)c([N+](=O)[O-])c2)cc1 [I-902, 4-((4-chloro-3-nitrophenyl)sulfonamido)-N-(4-fluorophenyl)benzamide] | 64%
COc1cccc(S(=O)(=O)Nc2ccc(C(=O)Nc3ccc4c(c3)OCCO4)cc2)c1 [I-903, N-(2,3-dihydrobenzo[b][1,4]dioxin-6-yl)-4-((3-methoxyphenyl)sulfonamido)benzamide] | 62%
O=C(Nc1cccc(F)c1)c1ccc(NS(=O)(=O)c2ccccc2)cc1 [I-904, N-(3-fluorophenyl)-4-(phenylsulfonamido)benzamide] | 62%
Cc1cccc(NC(=O)c2ccc(NS(=O)(=O)c3ccc(F)c(Cl)c3)cc2)c1 [I-905, 4-((3-chloro-4-fluorophenyl)sulfonamido)-N-(m-tolyl)benzamide] | 61%
O=C(Nc1cccc(Cl)c1)c1ccc(NS(=O)(=O)c2ccc(F)c(F)c2)cc1 [I-906, N-(3-chlorophenyl)-4-((3,4-difluorophenyl)sulfonamido)benzamide] | 61%
Cc1ccc(C)c(S(=O)(=O)Nc2ccc(C(=O)Nc3ccccc3F)cc2)c1 [I-907, 4-((2,5-dimethylphenyl)sulfonamido)-N-(2-fluorophenyl)benzamide] | 61%
O=C(Nc1ccc2c(c1)OC1(CCCC1)O2)c1ccc(NS(=O)(=O)c2ccccc2)cc1 [I-908, 4-(phenylsulfonamido)-N-(spiro[benzo[d][1,3]dioxole-2,1′-cyclopentan]-5-yl)benzamide] | 61%
Cc1cc(S(=O)(=O)Nc2ccc(C(=O)N3c4ccccc4CC3C)cc2)ccc1F (centres unmarked) [I-909, 4-fluoro-3-methyl-N-(4-(2-methylindoline-1-carbonyl)phenyl)benzenesulfonamide] | 60%
O=C(Nc1ccc2c(c1)CCC2)c1ccc(NS(=O)(=O)c2ccc3c(c2)OCCO3)cc1 [I-910, N-(2,3-dihydro-1H-inden-5-yl)-4-((2,3-dihydrobenzo[b][1,4]dioxine)-6-sulfonamido)benzamide] | 60%
CC1Cc2ccccc2N1C(=O)c1ccc(NS(=O)(=O)c2ccccc2)cc1 (centres unmarked) [I-911, N-(4-(2-methylindoline-1-carbonyl)phenyl)benzenesulfonamide] | 59%
